Laboratory results published in article PMC12064818, “A general assay platform to study protein pharmacology using ligand-dependent structural dynamics” (Nature Communications, 2025).
Values joined by “and” are separate entries in the source; they are usually repeats but may differ in a detail not shown here. Equal values may be shown once.

Tests used:
[1] = target: FLuc-N-HiBiT (firefly luciferase) (Photinus pyralis, UniProt P08659, form not given/L550V); assay: Firefly luciferase (FLuc) enzymatic luminescence assay, FLuc-N-HiBiT; assay type: biochemical; conditions: for Functional Enzymatic Assay: 10 nM FLuc-N-HiBiT, replicates; for Functional Enzymatic Assay / 10 nM FLuc-N-HiBiT Enz, Mean: Log [PTC124]
Protocol: The enzyme activity of FLuc-N-HiBiT, FLuc-C-HiBiT, and FLuc-C-NLuc was measured similar to P. pyralis firefly luciferase (FLuc) as previously described. […] Compounds and controls were added to each plate as described in Supplementary Data 8 with a Hornet pintool system (Wako Automation). Compounds were incubated with respective enzymes for 30–60 min at room temperature protected from light and covered by solid metal lid to prevent evaporation. […] Luciferin was incubated with FLuc enzyme for 5 min before FLuc activity was then measured on a ViewLux CCD imager (PerkinElmer), with exposure times up to ten seconds with medium to high gain settings. Data were normalized to average no enzyme control as 100% enzyme inhibition and average DMSO neutral control. See Supplementary Table 4 for additional details.
Supplementary Table 4. Protocol for Firefly luciferase (FLuc) and NanoLuc (NLuc) enzymatic
Supplementary Table 4: Protocol for Firefly luciferase (FLuc) and NanoLuc (NLuc) enzym atic lum inescence assay
Firefly luciferase (FLuc) enzym atic lum inescence assay
Sequence Param eter Value Description
No enzym e control (colum n 1) and enzym e solution (1- 10 nM FLuc enzym e) in FLuc assay
1 Reagent 4 µLbuffer; white/solid bottom , m edium bind, high base plates (Greiner), dispensed with BioRaptr
com pounds transferred to respective colum ns with Pintool
2b Test Com pounds 23 nLconcentration range) in colum ns 5- 48; com pounds transferred to respective wells with
3 Incubation 30 m in Incubate enzym e + com pounds at am bient tem p for 30 m in, protected from light
4 Reagent 3 µLAdd 3 µL of D-luciferin substrate solution to each well (final concentration 10 µM); dispensed
5 Detector ViewLux Read plate lum inescence (Exposure = 1- 10 sec; Gain = Medium -high; Speed = Slow;
Dispensing solution was diluted in 1X PBS, pH 7.4. […]

[2] = target: T1, T7 Lig-N-HiBiT (DNA ligase) (Escherichia phage T7, UniProt P00969); assay: SDR assay (aqueous ligand dispense), T7 Lig-N-HiBiT; conditions: for SDR assay data: 1 nM T7 Lig-N-HiBiT; for SDR assay data / SDR response: Log [ATP]; for SDR response: replicates
T1 sequence (P00969 2-359): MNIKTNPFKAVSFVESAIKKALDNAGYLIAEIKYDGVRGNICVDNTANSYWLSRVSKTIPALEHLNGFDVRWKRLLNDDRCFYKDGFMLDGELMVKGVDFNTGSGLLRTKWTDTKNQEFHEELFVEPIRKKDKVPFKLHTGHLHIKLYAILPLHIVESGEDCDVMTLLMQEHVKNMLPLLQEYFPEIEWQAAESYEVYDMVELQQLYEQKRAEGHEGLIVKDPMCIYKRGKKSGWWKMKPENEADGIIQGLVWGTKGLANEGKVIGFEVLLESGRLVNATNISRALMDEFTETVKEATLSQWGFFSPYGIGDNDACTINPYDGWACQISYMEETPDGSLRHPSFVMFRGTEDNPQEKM

[3] = T7 Lig-N-HiBiT (1 nM), ligand 100 µM

Chain of FLuc-N-HiBiT (firefly luciferase) (P08659 2-550 L550V, form open): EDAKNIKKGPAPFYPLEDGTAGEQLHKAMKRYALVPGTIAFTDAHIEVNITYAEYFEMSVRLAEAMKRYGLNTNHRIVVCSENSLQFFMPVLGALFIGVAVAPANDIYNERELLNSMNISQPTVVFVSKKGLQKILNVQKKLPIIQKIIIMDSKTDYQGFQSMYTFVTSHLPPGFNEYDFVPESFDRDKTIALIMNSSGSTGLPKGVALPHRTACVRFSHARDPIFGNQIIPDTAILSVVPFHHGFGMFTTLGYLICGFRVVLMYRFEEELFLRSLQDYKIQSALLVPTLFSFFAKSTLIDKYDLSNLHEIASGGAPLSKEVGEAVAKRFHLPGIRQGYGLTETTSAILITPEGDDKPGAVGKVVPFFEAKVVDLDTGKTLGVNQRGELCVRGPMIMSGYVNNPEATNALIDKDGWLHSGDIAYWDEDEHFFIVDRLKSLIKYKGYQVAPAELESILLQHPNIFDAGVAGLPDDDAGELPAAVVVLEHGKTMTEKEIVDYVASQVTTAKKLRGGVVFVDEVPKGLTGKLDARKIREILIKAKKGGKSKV

## O=C(O)c1cccc(-c2noc(-c3ccccc3F)n2)c1 [PTC124, reference compound]
[1]; M -4.48
  Functional Enzymatic Assay: 7.2 RLU and 7.9 RLU (2×) and 7.3 RLU and 6.7 RLU and 7.1 RLU
[1]; M -4.96
  Functional Enzymatic Assay: 8.6 RLU and 8.1 RLU and 7.7 RLU and 8.3 RLU and 7.1 RLU and 7.2 RLU
[1]; M -5.44
  Functional Enzymatic Assay: 8.3 RLU (2×) and 8.6 RLU and 8.4 RLU and 7.5 RLU (2×)
[1]; M -5.91
  Functional Enzymatic Assay: 8.7 RLU (2×) and 9.2 RLU and 8.9 RLU and 8.3 RLU and 8.5 RLU
[1]; M -6.39
  Functional Enzymatic Assay: 10.6 RLU and 10.5 RLU and 10.2 RLU (2×) and 10.1 RLU and 9.7 RLU
[1]; M -6.87
  Functional Enzymatic Assay: 14.3 RLU (2×) and 14.5 RLU and 14.7 RLU and 15.0 RLU and 14.8 RLU
[1]; M -7.35
  Functional Enzymatic Assay: 29.6 RLU and 29.7 RLU and 30.2 RLU and 33.4 RLU and 41.4 RLU and 37.0 RLU
[1]; M -7.82
  Functional Enzymatic Assay: 144.5 RLU and 149.3 RLU and 178.2 RLU and 166.0 RLU and 190.3 RLU and 174.6 RLU
[1]; M -8.30
  Functional Enzymatic Assay: 301.7 RLU and 309.5 RLU and 327.2 RLU and 328.1 RLU and 308.7 RLU and 316.4 RLU
[1]; M -8.78
  Functional Enzymatic Assay: 370.7 RLU and 364.6 RLU and 370.3 RLU and 363.9 RLU and 364.3 RLU and 365.0 RLU
[1]; M -9.25
  Functional Enzymatic Assay: 391.9 RLU and 389.1 RLU and 396.6 RLU and 382.9 RLU and 381.5 RLU and 379.2 RLU
[1]; M -9.73
  Functional Enzymatic Assay: 393.8 RLU and 390.8 RLU and 393.2 RLU and 390.0 RLU and 387.4 RLU and 383.0 RLU
[1]; M -10.21
  Functional Enzymatic Assay: 400.1 RLU and 398.5 RLU and 399.0 RLU and 394.9 RLU and 391.0 RLU and 381.4 RLU
[1]; M -10.69
  Functional Enzymatic Assay: 399.5 RLU and 393.3 RLU and 400.5 RLU and 393.7 RLU and 383.2 RLU and 377.0 RLU
[1]; M -11.16
  Functional Enzymatic Assay: 392.3 RLU and 386.5 RLU and 400.5 RLU and 393.0 RLU and 385.0 RLU and 368.5 RLU
[1]; M -11.64
  Functional Enzymatic Assay: 389.5 RLU and 376.4 RLU and 395.8 RLU and 380.1 RLU and 381.7 RLU and 371.3 RLU
[1]; 10 μM ATP
  pIC50, FLuc-N-HiBiT (10 nM): 7.68 ± 0.02
[1]; M (Enz) -4.24
  10 nM FLuc-N-HiBiT Enz, Mean: 7.3 RLU
[1]; M (Enz) -4.72
  10 nM FLuc-N-HiBiT Enz, Mean: 7.8 RLU
[1]; M (Enz) -5.19
  10 nM FLuc-N-HiBiT Enz, Mean: 8.1 RLU
[1]; M (Enz) -5.67
  10 nM FLuc-N-HiBiT Enz, Mean: 8.7 RLU
[1]; M (Enz) -6.15
  10 nM FLuc-N-HiBiT Enz, Mean: 10.2 RLU
[1]; M (Enz) -6.63
  10 nM FLuc-N-HiBiT Enz, Mean: 14.6 RLU
[1]; M (Enz) -7.10
  10 nM FLuc-N-HiBiT Enz, Mean: 33.5 RLU
[1]; M (Enz) -7.58
  10 nM FLuc-N-HiBiT Enz, Mean: 167.1 RLU
[1]; M (Enz) -8.06
  10 nM FLuc-N-HiBiT Enz, Mean: 315.3 RLU
[1]; M (Enz) -8.53
  10 nM FLuc-N-HiBiT Enz, Mean: 366.5 RLU
[1]; M (Enz) -9.01
  10 nM FLuc-N-HiBiT Enz, Mean: 386.9 RLU
[1]; M (Enz) -9.49
  10 nM FLuc-N-HiBiT Enz, Mean: 389.7 RLU
[1]; M (Enz) -9.97
  10 nM FLuc-N-HiBiT Enz, Mean: 394.1 RLU
[1]; M (Enz) -10.44
  10 nM FLuc-N-HiBiT Enz, Mean: 391.2 RLU
[1]; M (Enz) -10.92
  10 nM FLuc-N-HiBiT Enz, Mean: 387.6 RLU
[1]; M (Enz) -11.40
  10 nM FLuc-N-HiBiT Enz, Mean: 382.5 RLU

## Nc1ncnc2c1ncn2[C@@H]1O[C@H](COP(=O)(O)OP(=O)(O)OP(=O)(O)O)[C@@H](O)[C@H]1O [ATP]
[2]
  EC50: ≥ 100 µM
[2]; M -2.85
  SDR assay data: 436.8 and 379.9 and 405.2
  SDR response: 405.2 and 436.8 and 379.9
[2]; M -3.15
  SDR assay data: 279.5 and 253.1 and 256.0
  SDR response: 256.0 and 279.5 and 253.1
[2]; M -3.45
  SDR assay data: 148.4 and 136.3 and 161.1
  SDR response: 161.1 and 148.4 and 136.3
[2]; M -3.75
  SDR assay data: 97.7 and 88.5 and 106.1
  SDR response: 106.1 and 97.7 and 88.5
[2]; M -4.05
  SDR assay data: 63.0 and 57.2 and 69.3
  SDR response: 69.3 and 63.0 and 57.2
[2]; M -4.35
  SDR assay data: 47.1 and 49.4 and 60.4
  SDR response: 60.4 and 47.1 and 49.4
[2]; M -4.65
  SDR assay data: 42.9 and 27.8 and 47.0
  SDR response: 47.0 and 42.9 and 27.8
[2]; M -4.95
  SDR assay data: 31.1 and 25.7 and 35.7
  SDR response: 35.7 and 31.1 and 25.7
[2]; M -5.55
  SDR assay data: 21.1 and 18.2 and 32.8
  SDR response: 32.8 and 21.1 and 18.2
[2]; M -6.46
  SDR assay data: 17.8 and 13.4 and 26.6
  SDR response: 26.6 and 17.8 and 13.4
[2]; M -6.76
  SDR assay data: 16.5 and 24.2 and 25.4
  SDR response: 25.4 and 16.5 and 24.2
[2]; M -5.25
  SDR response: 40.3 and 24.1 and 20.1
[2]; M -5.86
  SDR response: 31.3 and 18.8
[2]; M -6.16
  SDR response: 32.1 and 13.9 and 17.4
[2]; T7 Lig-N-HiBiT
  SDR assay response (in words): strong SDR signal
[2]; [3]
  SDR assay statistics Ave RLU: 88.7 RLU
  SDR assay statistics S:B: 2.0
  SDR assay statistics S:N: 5.7
  SDR assay statistics Z’: 0.337
[2]; T7 Lig-N-HiBiT, maximum response
  max resp: 407.3
